Biological target: T1, JAK3 (Homo sapiens, UniProt P52333)
T1 construct: endogenous in cells; host or cells: mixed Molt4/Ramos lysate (1:2)
T1 sequence (P52333 1-1124): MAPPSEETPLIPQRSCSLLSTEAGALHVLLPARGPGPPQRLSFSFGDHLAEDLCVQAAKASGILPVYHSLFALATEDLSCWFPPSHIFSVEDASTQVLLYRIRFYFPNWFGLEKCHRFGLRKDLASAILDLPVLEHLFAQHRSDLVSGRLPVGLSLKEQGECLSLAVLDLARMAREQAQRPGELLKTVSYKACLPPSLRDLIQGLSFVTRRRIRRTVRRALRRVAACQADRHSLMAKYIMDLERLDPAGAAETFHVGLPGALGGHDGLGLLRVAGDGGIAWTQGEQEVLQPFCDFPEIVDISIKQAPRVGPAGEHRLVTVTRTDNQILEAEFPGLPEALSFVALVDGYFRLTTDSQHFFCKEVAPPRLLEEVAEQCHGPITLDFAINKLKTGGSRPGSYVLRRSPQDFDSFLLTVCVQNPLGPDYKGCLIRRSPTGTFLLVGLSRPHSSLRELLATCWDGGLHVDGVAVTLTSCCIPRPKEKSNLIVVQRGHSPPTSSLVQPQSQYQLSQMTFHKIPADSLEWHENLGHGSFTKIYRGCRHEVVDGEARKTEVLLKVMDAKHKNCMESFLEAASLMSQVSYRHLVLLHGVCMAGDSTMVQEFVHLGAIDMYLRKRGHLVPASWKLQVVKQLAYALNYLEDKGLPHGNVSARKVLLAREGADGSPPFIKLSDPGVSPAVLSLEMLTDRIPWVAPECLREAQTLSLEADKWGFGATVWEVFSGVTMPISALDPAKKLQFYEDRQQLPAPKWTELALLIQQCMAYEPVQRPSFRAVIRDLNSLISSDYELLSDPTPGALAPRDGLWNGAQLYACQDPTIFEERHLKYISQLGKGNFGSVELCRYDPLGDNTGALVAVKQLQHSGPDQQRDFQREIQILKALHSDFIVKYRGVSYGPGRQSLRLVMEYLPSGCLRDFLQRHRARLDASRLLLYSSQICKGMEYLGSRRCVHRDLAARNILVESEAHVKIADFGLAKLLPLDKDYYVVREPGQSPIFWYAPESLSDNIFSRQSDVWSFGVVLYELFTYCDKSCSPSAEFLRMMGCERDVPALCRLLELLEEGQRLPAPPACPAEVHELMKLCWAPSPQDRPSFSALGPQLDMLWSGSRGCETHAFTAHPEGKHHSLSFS
Assay: Kinobeads assay, JAK3
Format: binding
Settings: mixed Molt4/Ramos lysate, read-out: Inhibition values (IC50) JAK3
How it was run: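 Competition binding in mixed Molt4/Ramos cell lysate (1:2, 10 mg/mL protein) with Kinobeads carrying immobilized aminopyrido-pyrimidine ligand, 3 h in cold room; 9-step 1:3 compound dilution series from 5 mM DMSO stock. Bead-bound JAK2/JAK3 eluted and quantified by antibody dot blot with infrared detection; IC50 from dose-response curves.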

| IC50 [nM] | SMILES |
| --- | --- |
| < 100 | CN(C)CCCn1cc(Nc2ncc3cnn(Cc4c(F)c(F)cc(N5CCOCC5=O)c4F)c3n2)cn1 [Example 70, 4-(3-((6-((1-(3-(Dimethylamino)propyl)-1H-pyrazol-4-yl)amino)-1H-pyrazolo[3,4-d]pyrimidin-1-yl)methyl)-2,4,5-trifluorophenyl)morpholin-3-one] |
| < 100 | Cn1cc(Nc2ncc3cnn(Cc4cc(N5CCNCC5=O)cc(F)c4F)c3n2)cn1 [Example 71, 1-(3,4-Difluoro-5-((6-((1-methyl-1H-pyrazol-4-yl)amino)-1H-pyrazolo[3,4-d]pyrimidin-1-yl)methyl)phenyl)piperazin-2-one] |
| < 100 | O=C1CNCCN1c1cc(F)c(F)c(Cn2ncc3cnc(Nc4cnn(CCO)c4)nc32)c1 [Example 72, 1-(3,4-Difluoro-5-((6-((1-(2-hydroxyethyl)-1H-pyrazol-4-yl)amino)-1H-pyrazolo[3,4-d]pyrimidin-1-yl)methyl)phenyl)piperazin-2-one] |
| < 100 | Cn1cc(Nc2ncc3cnn(Cc4cc(F)cc(N5CCOCC5=O)c4F)c3n2)cn1 [Example 73, 4-(2,5-Difluoro-3-((6-((1-methyl-1H-pyrazol-4-yl)amino)-1H-pyrazolo[3,4-d]pyrimidin-1-yl)methyl)phenyl)morpholin-3-one] |
| < 100 | O=C1COCCN1c1cc(F)cc(Cn2ncc3cnc(Nc4cnn(CCO)c4)nc32)c1F [Example 74, 4-(2,5-Difluoro-3-((6-((1-(2-hydroxyethyl)-1H-pyrazol-4-yl)amino)-1H-pyrazolo[3,4-d]pyrimidin-1-yl)methyl)phenyl)morpholin-3-one] |
| < 100 | CN(C)CCCn1cc(Nc2ncc3cnn(Cc4c(F)ccc(N5CCOCC5=O)c4F)c3n2)cn1 [Example 75, 4-(3-((6-((1-(3-(Dimethylamino)propyl)-1H-pyrazol-4-yl)amino)-1H-pyrazolo[3,4-d]pyrimidin-1-yl)methyl)-2,4-difluorophenyl)morpholin-3-one] |
| < 100 | Cn1cc(Nc2ncc3cnn(Cc4c(F)ccc(N5CCNCC5=O)c4F)c3n2)cn1 [Example 76, 1-(2,4-Difluoro-3-((6-((1-methyl-1H-pyrazol-4-yl)amino)-1H-pyrazolo[3,4-d]pyrimidin-1-yl)methyl)phenyl)piperazin-2-one] |
| < 100 | COC1CCN(c2cccc(Cn3ncc4cnc(Nc5cnn(C)c5)nc43)c2)CC1 [Example 77, 1-(3-(4-Methoxypiperidin-1-yl)benzyl)-N-(1-methyl-1H-pyrazol-4-yl)-1H-pyrazolo[3,4-d]pyrimidin-6-amine] |
| < 100 | OCCn1cc(Nc2ncc3cnn(Cc4cc(N5CCNCC5)cc(F)c4F)c3n2)cn1 [Example 78, 2-(4-((1-(2,3-Difluoro-5-(piperazin-1-yl)benzyl)-1H-pyrazolo[3,4-d]pyrimidin-6-yl)amino)-1H-pyrazol-1-yl)ethanol] |
| < 100 | Cn1cc(Nc2ncc3cnn(Cc4cc(F)cc(C(=O)N5CCOCC5)c4)c3n2)cn1 [Example 79, (3-Fluoro-5-((6-((1-methyl-1H-pyrazol-4-yl)amino)-1H-pyrazolo[3,4-d]pyrimidin-1-yl)methyl)phenyl)(morpholino)methanone] |
| < 100 | Cn1cc(Nc2ncc3cnn(Cc4cc(F)cc(C(=O)N5CCNCC5)c4)c3n2)cn1 [Example 80, (3-Fluoro-5-((6-((1-methyl-1H-pyrazol-4-yl)amino)-1H-pyrazolo[3,4-d]pyrimidin-1-yl)methyl)phenyl)(piperazin-1-yl)methanone] |
| < 100 | Fc1cc(N2CCOCC2)c(F)c(Cn2ncc3cnc(Nc4cn[nH]c4)nc32)c1F [Example 81, N-(1H-Pyrazol-4-yl)-1-(2,3,6-trifluoro-5-morpholinobenzyl)-1H-pyrazolo[3,4-d]pyrimidin-6-amine] |
| < 100 | OCCn1cc(Nc2ncc3cnn(Cc4c(F)ccc(N5CCOCC5)c4F)c3n2)cn1 [Example 82, 2-(4-((1-(2,6-Difluoro-3-morpholinobenzyl)-1H-pyrazolo[3,4-d]pyrimidin-6-yl)amino)-1H-pyrazol-1-yl)ethanol] |
| < 100 | OCCn1cc(Nc2ncc3cnn(Cc4cccc(N5CCNCC5)c4F)c3n2)cn1 [Example 83, 2-(4-((1-(2-Fluoro-3-(piperazin-1-yl)benzyl)-1H-pyrazolo[3,4-d]pyrimidin-6-yl)amino)-1H-pyrazol-1-yl)ethanol] |
| < 100 | O=C1COCCN1c1cc(F)cc(Cn2ncc3cnc(Nc4cn[nH]c4)nc32)c1 [Example 84, 4-(3-((6-((1H-Pyrazol-4-yl)amino)-1H-pyrazolo[3,4-d]pyrimidin-1-yl)methyl)-5-fluorophenyl)morpholin-3-one] |
| < 100 | O=C(c1cccc(Cn2ncc3cnc(Nc4cnn(CCO)c4)nc32)c1F)N1CCOCC1 [Example 85, (2-Fluoro-3-((6-((1-(2-hydroxyethyl)-1H-pyrazol-4-yl)amino)-1H-pyrazolo[3,4-d]pyrimidin-1-yl)methyl)phenyl)(morpholino)methanone] |
| < 100 | Cn1cc(Nc2ncc3cnn(Cc4cc(N5CCNCC5)cc(F)c4F)c3n2)cn1 [Example 86, 1-(2,3-Difluoro-5-(piperazin-1-yl)benzyl)-N-(1-methyl-1H-pyrazol-4-yl)-1H-pyrazolo[3,4-d]pyrimidin-6-amine] |
| < 100 | Cn1cc(Nc2ncc3cnn(Cc4cccc(C(=O)N5CCOCC5)c4F)c3n2)cn1 [Example 87, (2-Fluoro-3-((6-((1-methyl-1H-pyrazol-4-yl)amino)-1H-pyrazolo[3,4-d]pyrimidin-1-yl)methyl)phenyl)(morpholino)methanone] |
| 100 to 1000 | Cn1cc(Nc2ncc3cnn(Cc4cccc(N5CCOCC5O)c4)c3n2)cn1 (stereo not shown) [Example 88, 4-(3-((6-((1-Methyl-1H-pyrazol-4-yl)amino)-1H-pyrazolo[3,4-d]pyrimidin-1-yl)methyl)phenyl)morpholin-3-ol] |
